Reference: patent publication US11992497B2 (priority 2021, dated 2024)

Tests used:
[1] = target: T1, UGT1A4 (Homo sapiens, UniProt P22310); experiment: UGT reaction phenotyping, recombinant Supersomes; format: in vitro ADME; conditions: human, recombinant UGT1A4 Supersomes, pH 7.4, Test Conc. 1 μM; for microsomal CLint at 1 µM: read-out: Recombinant UGT CLINT Clearance; for half-life at 1 µM: read-out: Recombinant UGT Half Life T1/2
T1 construct: purchased BD Biosciences
T1 sequence (P22310 29-534): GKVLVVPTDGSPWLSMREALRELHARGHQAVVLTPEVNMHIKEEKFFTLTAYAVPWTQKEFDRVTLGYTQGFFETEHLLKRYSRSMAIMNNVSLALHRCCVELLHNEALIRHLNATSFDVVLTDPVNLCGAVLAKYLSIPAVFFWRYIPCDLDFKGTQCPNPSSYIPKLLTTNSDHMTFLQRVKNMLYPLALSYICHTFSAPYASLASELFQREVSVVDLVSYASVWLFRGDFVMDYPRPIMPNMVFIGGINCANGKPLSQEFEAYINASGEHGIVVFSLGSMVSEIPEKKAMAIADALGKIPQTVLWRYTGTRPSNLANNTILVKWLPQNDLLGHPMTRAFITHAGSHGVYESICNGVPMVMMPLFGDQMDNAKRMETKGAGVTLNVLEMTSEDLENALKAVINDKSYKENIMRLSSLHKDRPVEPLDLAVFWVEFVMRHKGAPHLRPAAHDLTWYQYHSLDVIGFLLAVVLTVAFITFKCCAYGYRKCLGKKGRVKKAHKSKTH
Source text: Experimental Summary: UGT Reaction Phenotyping (7 Isoforms).

[2] = target: T2, rUGT1A9 (Homo sapiens, UniProt O60656); experiment: Inhibition of CBG glucuronidation by Compound 1; format: biochemical; conditions: for CBG detected, Percent of control / CBG glucuronide formed, Percent of control: rUGT1A9; for CBG detected / CBG glucuronide formed: rUGT1A9, 4 min
T2 sequence (O60656 26-530): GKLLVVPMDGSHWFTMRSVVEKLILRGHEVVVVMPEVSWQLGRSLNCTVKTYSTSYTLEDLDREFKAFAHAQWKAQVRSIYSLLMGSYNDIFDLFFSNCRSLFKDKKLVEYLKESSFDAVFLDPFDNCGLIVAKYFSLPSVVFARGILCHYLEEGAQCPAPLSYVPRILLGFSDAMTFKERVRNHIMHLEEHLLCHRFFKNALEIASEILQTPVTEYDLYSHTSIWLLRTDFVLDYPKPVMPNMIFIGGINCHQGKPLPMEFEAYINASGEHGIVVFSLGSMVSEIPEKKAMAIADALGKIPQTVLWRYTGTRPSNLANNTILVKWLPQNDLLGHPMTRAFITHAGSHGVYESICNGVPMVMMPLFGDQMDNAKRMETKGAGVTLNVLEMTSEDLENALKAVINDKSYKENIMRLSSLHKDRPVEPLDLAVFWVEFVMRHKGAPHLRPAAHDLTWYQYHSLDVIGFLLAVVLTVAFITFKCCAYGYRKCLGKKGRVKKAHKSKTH
Procedure: The purpose of this experiment was to determine if Compound 1 can inhibit the glucuronidation of CBG, as both are substrates for the two major isoforms responsible for CBG glucuronidation.
The ability of Compound 1 to inhibit the metabolism of CBG by UGT1A9 and UGT2B7 enzymes was investigated to ascertain the ICso values for direct inhibition. The incubation conditions (substrate concentration, incubation time and protein concentration) were determined in Part 2 of the protocol such that CBG metabolism remains near initial rate conditions (e.g., 20-30% substrate loss).
Preliminary experiments were conducted in Part I of the protocol, first to establish the HPLC/MS/MS bioanalytical methods for CBG and CBG glucuronide. […] The second set of preliminary experiments (Part 2), as mentioned, were conducted to optimize the incubation conditions as described above. Incubations (at 37 C) contained Tris-HCl buffer (100 mM, pH 7.7), MgCl2 (10 mM), EDTA (1 mM, pH 7.4) and UDP-glucuronic acid (UDPGA, 10 mM). CBG was added to each incubation in DMSO such that the final percent of DMSO was 1% v/v, or less. Reactions were terminated by the addition of an equal volume of stop reagent, acetonitrile containing an internal standard. The samples were centrifuged (e.g., 920 RCF for 10 minutes at 10° C.), and the supernatant fractions were analyzed by LC-MS/MS to determine the amount of CBG remaining and formation of one metabolite (CBG glucuronide).
To examine its ability to act as a direct inhibitor of the above listed enzymes, Compound 1 was be added to recombinant human UGT enzyme together with CBG. Reactions were initiated with UDPGA and were carried out in duplicate. For all assays, reactions were terminated by the addition of acetonitrile with or without 2% v/v formic acid, including the internal standard.
Authentic metabolite reference standards were used for quantitation of the probe substrate metabolites and as internal standards. Based on the information obtained in the Part 2 experiments, the following table summarizes the experiments performed, assessing the inhibitory effects of Compound 1 was conducted as follows:
The amounts of CBG present at the end of the incubation periods was determined. For inhibition to have occurred, the amounts of CBG present at the end of the incubation period needed to increase, and the amounts of glucuronide formed needed to decrease.

What does the source list for `CCCCCc1cc(O)c(C/C=C(\C)CCC=C(C)C)c(O)c1` [CBG, cannabigerol]?
microsomal CLint at 1 µM [1]: < 2.89 µL/min/mg; half-life at 1 µM [1]: > 240 min

Which microsomal CLint at 1 µM [1] does the source give for `CCCCCc1cc(O)c(C/C=C(\C)CCC=C(C)C)c(OC)c1` [Compound 1, (E)-2-(3,7-dimethylocta-2,6-dien-1-yl)-3-methoxy-5-pentylphenol] here?
The microsomal CLint at 1 µM was less than 2.89 µL/min/mg.

What about the half-life at 1 µM [1] of the same molecule?
Its half-life at 1 µM is greater than 240 min.

And the “CBG detected, Percent of control” value ([2]; 10 μM CBG + 0.01 μM Compound 1)?
Its value is 109% of control.

What about the “CBG glucuronide formed, Percent of control” value ([2]; 10 μM CBG + 0.01 μM Compound 1) of the same molecule?
The value was 94.4% of control.

What about the CBG detected ([2]; 10 μM CBG + 0.01 μM Compound 1) of the same molecule?
The CBG detected was 1250 pmol.

What about the CBG glucuronide formed ([2]; 10 μM CBG + 0.01 μM Compound 1) of the same molecule?
The CBG glucuronide formed was 350000 area ratio.

And the “CBG detected, Percent of control” value ([2]; 10 μM CBG + 0.03 μM Compound 1)?
Its value is 110% of control.

What about the “CBG glucuronide formed, Percent of control” value ([2]; 10 μM CBG + 0.03 μM Compound 1) of the same molecule?
The value was 97.1% of control.

What about the CBG detected ([2]; 10 μM CBG + 0.03 μM Compound 1) of the same molecule?
The CBG detected was 1250 pmol.

What about the CBG glucuronide formed ([2]; 10 μM CBG + 0.03 μM Compound 1) of the same molecule?
The CBG glucuronide formed was 360000 area ratio.

What about the “CBG detected, Percent of control” value ([2]; 10 μM CBG + 0.1 μM Compound 1) of the same molecule?
Its value is 112% of control.

What about the “CBG glucuronide formed, Percent of control” value ([2]; 10 μM CBG + 0.1 μM Compound 1) of the same molecule?
The value was 92.0% of control.

And the CBG detected ([2]; 10 μM CBG + 0.1 μM Compound 1)?
Its CBG detected is 1280 pmol.

What about the CBG glucuronide formed ([2]; 10 μM CBG + 0.1 μM Compound 1) of the same molecule?
Its CBG glucuronide formed is 341000 area ratio.

What about the “CBG detected, Percent of control” value ([2]; 10 μM CBG + 0.3 μM Compound 1) of the same molecule?
Its value is 114% of control.

What about the “CBG glucuronide formed, Percent of control” value ([2]; 10 μM CBG + 0.3 μM Compound 1) of the same molecule?
Its value is 94.4% of control.

And the CBG detected ([2]; 10 μM CBG + 0.3 μM Compound 1)?
The CBG detected was 1300 pmol.

What about the CBG glucuronide formed ([2]; 10 μM CBG + 0.3 μM Compound 1) of the same molecule?
The CBG glucuronide formed was 350000 area ratio.

What about the “CBG detected, Percent of control” value ([2]; 10 μM CBG + 1 μM Compound 1) of the same molecule?
Its value is 106% of control.

What about the “CBG glucuronide formed, Percent of control” value ([2]; 10 μM CBG + 1 μM Compound 1) of the same molecule?
Its value is 92.6% of control.

And the CBG detected ([2]; 10 μM CBG + 1 μM Compound 1)?
Its CBG detected is 1210 pmol.

And the CBG glucuronide formed ([2]; 10 μM CBG + 1 μM Compound 1)?
The CBG glucuronide formed was 343000 area ratio.

And the “CBG detected, Percent of control” value ([2]; 10 μM CBG + 3 μM Compound 1)?
Its value is 105% of control.

What about the “CBG glucuronide formed, Percent of control” value ([2]; 10 μM CBG + 3 μM Compound 1) of the same molecule?
The value was 93.6% of control.

What about the CBG detected ([2]; 10 μM CBG + 3 μM Compound 1) of the same molecule?
The CBG detected was 1200 pmol.

What about the CBG glucuronide formed ([2]; 10 μM CBG + 3 μM Compound 1) of the same molecule?
Its CBG glucuronide formed is 347000 area ratio.

And the “CBG detected, Percent of control” value ([2]; 10 μM CBG + 10 μM Compound 1)?
Its value is 99.8% of control.

And the “CBG glucuronide formed, Percent of control” value ([2]; 10 μM CBG + 10 μM Compound 1)?
The value was 92.8% of control.

What about the CBG detected ([2]; 10 μM CBG + 10 μM Compound 1) of the same molecule?
The CBG detected was 1140 pmol.

And the CBG glucuronide formed ([2]; 10 μM CBG + 10 μM Compound 1)?
The CBG glucuronide formed was 344000 area ratio.

And the “inhibition of the conversion of CBG to a glucuronide (in words)” value ([2]; UGT1A9, 0.01-10 μM Compound 1)?
Its value is “not an effective inhibitor”.
